From patent US20260184675A1, “CHIRAL ISOMERIC SULFITE COMPOUND AND APPLICATION THEREOF” (Chengdu Hanova BioSciences Co., Ltd, priority 2024, published 2026)

Experiments:
Type in all cases: in vivo
eggs of Thrips = assay: Effect on hatching of eggs of Thrips, leaf disc method; conditions: 100 ppm; for Hatching rate (%): 5 days after insecticide delivery
Protocol: (§1) • (1) Preparation of leaf discs containing eggs: 20 female adult mites of Tetranychus cinnabarinus were transferred onto leaf discs of Vicia faba with a diameter of 2.0 cm (with wetted filter paper at the bottom), then covered it with a lidded culture dish and cultivated under moisturizing conditions, the adult mites were removed within 36 hours and microscopic examination and counting were performed on leaf discs containing eggs. • (2) Investigation of egg population base: Before pesticide soaking, a microscopic examination was conducted on the egg basic number of each leaf disc, with 2 replicates set for each treatment. • (3) Pesticide soaking treatment: The leaf butterflies loaded with mite eggs were soaked in clear water and sulfite compounds for 10 seconds, respectively, then taken out and cultivated under moisturizing conditions. Each treatment should be repeated for no less than 3 times. • (4) Cultivation and observation: The […] were cultivated under normal conditions. Five days after insecticide delivery, the hatching status of mite eggs was investigated. • Note: The temperature and humidity conditions of the constant temperature and humidity incubator after the treatment should be controlled so as to avoid excessive temperature differences, which may cause generation and dripping of condensate water in the culture dish, resulting in abnormal death of eggs due to soaking in water; it is also necessary to ensure sufficient strong ambient light, without directing irradiating the leaves. • (5) Survey of Results: The experimental materials of each treatment group were regularly hydrated and moisturized, and the hatching of eggs was observed. On the 7th day after insecticide delivery, the number of hatched eggs for each treatment was recorded, and the survey of results was recorded in the original notebook. According to the experimental requirements and characteristics of agents, the survey time can be shortened or extended.
(§2) • 1) Surveying and recording the number of hatched eggs for each treatment. • 2) Photographing and recording whether there was any pesticide damage to the leaf discs of Vicia faba. • 3) Recording the developmental status of experimental mite eggs, behavior status of nymph mites, including abnormal phenomena such as delayed or stopped development of mite eggs, difficulty in breaking hull for nymph mites, or painful struggles after hatching, etc. • (6) Calculation method: Based on the survey data, the prevention and control effect of each treatment was calculated according to the following formula, and the calculation results were kept to two decimal places.
(§3) This test adopted the method in Test Example 1 of technical section, mainly used leaf disc method to explore the inhibitory effect on hatching of eggs of Thrips by 1-(S,S), 1-(S,R), 1-(R,R), 1-(R,S), 1′-(S,S), 1′-(S,R), 1′-(R,R), 1′-(R,S), compound 1, compound 1′, S-10, R-10, S-10′, R-10′, compound 10, compound 10′, compound 19-(S,S), 19-(S,R), 19-(R,R), 19-(R,S), 19′-(S,S), 19′-(S,R), 19′-(R,R), 19′-(R,S), compound 19, and compound 19′. The concentration of all compounds was 100 ppm.

[1] = system: eggs of Tetranychus urticae; assay: Effect on hatching of eggs of Tetranychus urticae, leaf disc method; conditions: 5 ppm; for Hatching rate (%): 5 days after insecticide delivery
Protocol: as §1, §2
as §3, with “Tetranychus urticae” for “Thrips”, “by compounds” for “by”, “5” for “100”

eggs of Panonychus citri = assay: Effect on hatching of eggs of Panonychus citri, leaf disc method; conditions: 1 ppm; for Hatching rate (%), Replicate 1 / Hatching rate (%), Replicate 2 / Hatching rate (%), Replicate 3 / Number of hatched larvae 5 days after insecticide delivery, Replicate 1 / Number of hatched larvae 5 days after insecticide delivery, Replicate 2 / Number of hatched larvae 5 days after insecticide delivery, Replicate 3: Panonychus citri eggs; for Hatching rate (%), Replicate 1 / Hatching rate (%), Replicate 2 / Hatching rate (%), Replicate 3: 5 days after delivery; for Number of hatched larvae 5 days after insecticide delivery, Replicate 1 / Number of hatched larvae 5 days after insecticide delivery, Replicate 2 / Number of hatched larvae 5 days after insecticide delivery, Replicate 3: leaf disc
Protocol: as §1, §2
as §3, with “the” for “the inhibitory”, “Panonychus citri” for “Thrips”, “by compounds” for “by”, “1” for “100”

[2] = system: eggs of Spodoptera litura; assay: Effect on hatching of eggs of Spodoptera litura, egg piece soaking; conditions: 500 ppm; for Hatching rate (%), Replicate 1 / Hatching rate (%), Replicate 2 / Hatching rate (%), Replicate 3 / Number of unhatched larvae 4 days after insecticide delivery, Replicate 1 / Number of unhatched larvae 4 days after insecticide delivery, Replicate 2 / Number of unhatched larvae 4 days after insecticide delivery, Replicate 3: Spodoptera litura eggs; for Hatching rate (%), Replicate 1 / Hatching rate (%), Replicate 2 / Hatching rate (%), Replicate 3: 4 days after delivery; for Number of unhatched larvae 4 days after insecticide delivery, Replicate 1 / Number of unhatched larvae 4 days after insecticide delivery, Replicate 2 / Number of unhatched larvae 4 days after insecticide delivery, Replicate 3: soaked 10 minutes
Protocol: • (1) Preparation of paper containing eggs: the egg mass was cut into small pieces, each containing about 60 eggs, soaked in a preformulated test agent for 10 minutes together with paper for egg raising (concentration of each compound of 500 ppm). After taken out, absorbent paper was used to absorb the excess solution adhered to the paper for egg raising and egg pieces. (2) Cultivation: Each egg piece was separately placed in a glass test tube (5.0 cm in height, 2.5 cm in diameter, the same below), which was sealed with plastic paper punctured with fine holes using insect needles and cultivated in an artificial climate chamber at a temperature of (24±1° C.), a relative humidity of (80±10) %, and a photoperiod of L:D=12:12. When the eggs developed until they were about to hatch, castor leaves with a diameter of about 3 cm were added for feeding the hatching larvae; • (3) Observation: the number of hatched and unhatched eggs per egg piece was checked and recorded, and the hatching rate of eggs was calculated according to the formula. Each treatment was repeated for 3 times. • (4) Survey of results: The experimental materials of each treatment group were regularly hydrated and moisturized, and the hatching of eggs was observed. On the 4th day after insecticide delivery, the number of hatched eggs for each treatment was recorded, and the survey of results was recorded in the original notebook. According to the experimental requirements and characteristics of agents, the survey time can be shortened or extended. • 1) Surveying and recording the number of hatched eggs for each treatment. • 2) Recording the developmental status of experimental eggs of Spodoptera litura, behavior status of nymphs, including abnormal phenomena such as delayed or stopped development of eggs of Spodoptera litura, etc. • (5) Calculation method: Based on the survey data, the prevention and control effect of each treatment was calculated according to the following formula, and the calculation results were kept to two decimal places. [formula] [formula]

[3] = Replicate 1, listed as 19-(R, R)
[4] = Replicate 2, listed as 19-(R, R)
[5] = Replicate 3, listed as 19-(R, R)

CC[C@H](COS(=O)OCCF)Oc1ccc(Cl)cc1Cl (stereo partly drawn) [19′-(R,S)]
Hatching rate (%) (eggs of Thrips; Replicate 1): 9.02% | Hatching rate (%) (eggs of Thrips; Replicate 2): 9.18% | Hatching rate (%) (eggs of Thrips; Replicate 3): 8.74% | Number of hatched larvae 5 days after insecticide delivery (eggs of Thrips; Replicate 1): 12 | Number of hatched larvae 5 days after insecticide delivery (eggs of Thrips; Replicate 2): 9 | Number of hatched larvae 5 days after insecticide delivery (eggs of Thrips; Replicate 3): 9 | Hatching rate (%) ([1]; Replicate 1): 12.66% | Hatching rate (%) ([1]; Replicate 2): 13.25% | Number of hatched larvae 5 days after insecticide delivery ([1]; Replicate 1): 10 | Number of hatched larvae 5 days after insecticide delivery ([1]; Replicate 2): 11 | Hatching rate (%), Replicate 1 (eggs of Panonychus citri): 10.43% | Hatching rate (%), Replicate 2 (eggs of Panonychus citri): 10.42% | Hatching rate (%), Replicate 3 (eggs of Panonychus citri): 9.57% | Number of hatched larvae 5 days after insecticide delivery, Replicate 1 (eggs of Panonychus citri): 12 | Number of hatched larvae 5 days after insecticide delivery, Replicate 2 (eggs of Panonychus citri): 10 | Number of hatched larvae 5 days after insecticide delivery, Replicate 3 (eggs of Panonychus citri): 9 | Hatching rate (%), Replicate 1 [2]: 51.67% | Hatching rate (%), Replicate 2 [2]: 50.77% | Hatching rate (%), Replicate 3 [2]: 50.00% | Number of unhatched larvae 4 days after insecticide delivery, Replicate 1 [2]: 30 | Number of unhatched larvae 4 days after insecticide delivery, Replicate 2 [2]: 32 | Number of unhatched larvae 4 days after insecticide delivery, Replicate 3 [2]: 27

CCC(COc1ccc(Cl)cc1Cl)OS(=O)OCCF [19-(R,R)]
Hatching rate (%) (eggs of Thrips; [3]): 12.63% | Hatching rate (%) (eggs of Thrips; [4]): 13.46% | Hatching rate (%) (eggs of Thrips; [5]): 13.04% | Number of hatched larvae 5 days after insecticide delivery (eggs of Thrips; [3]): 12 | Number of hatched larvae 5 days after insecticide delivery (eggs of Thrips; [4]): 14 | Number of hatched larvae 5 days after insecticide delivery (eggs of Thrips; [5]): 15 | Hatching rate (%) [1, 3]: 17.98% | Hatching rate (%) [1, 4]: 17.92% | Number of hatched larvae 5 days after insecticide delivery [1, 3]: 16 | Number of hatched larvae 5 days after insecticide delivery [1, 4]: 19 | Hatching rate (%), Replicate 1 (eggs of Panonychus citri; listed as 19-(R, R)): 7.52% | Hatching rate (%), Replicate 2 (eggs of Panonychus citri; listed as 19-(R, R)): 8.41% | Hatching rate (%), Replicate 3 (eggs of Panonychus citri; listed as 19-(R, R)): 8.33% | Number of hatched larvae 5 days after insecticide delivery, Replicate 1 (eggs of Panonychus citri; listed as 19-(R, R)): 10 | Number of hatched larvae 5 days after insecticide delivery, Replicate 2 (eggs of Panonychus citri; listed as 19-(R, R)): 9 | Number of hatched larvae 5 days after insecticide delivery, Replicate 3 (eggs of Panonychus citri; listed as 19-(R, R)): 7 | Hatching rate (%), Replicate 1 ([2]; listed as 19-(R, R)): 50.85% | Hatching rate (%), Replicate 2 ([2]; listed as 19-(R, R)): 51.61% | Hatching rate (%), Replicate 3 ([2]; listed as 19-(R, R)): 50.79% | Number of unhatched larvae 4 days after insecticide delivery, Replicate 1 ([2]; listed as 19-(R, R)): 29 | Number of unhatched larvae 4 days after insecticide delivery, Replicate 2 ([2]; listed as 19-(R, R)): 30 | Number of unhatched larvae 4 days after insecticide delivery, Replicate 3 ([2]; listed as 19-(R, R)): 31

CC[C@@H](COc1ccc(Cl)cc1Cl)OS(=O)OCCF (stereo partly drawn) [19-(S,R)]
inhibitory activity on the hatching of eggs of Thrips (in words) (eggs of Thrips): strong inhibitory activities | Hatching rate (%) (eggs of Thrips; Replicate 1): 0.00% | Hatching rate (%) (eggs of Thrips; Replicate 2): 0.00% | Hatching rate (%) (eggs of Thrips; Replicate 3): 0.00% | Number of hatched larvae 5 days after insecticide delivery (eggs of Thrips; Replicate 1): 0 | Number of hatched larvae 5 days after insecticide delivery (eggs of Thrips; Replicate 2): 0 | Number of hatched larvae 5 days after insecticide delivery (eggs of Thrips; Replicate 3): 0 | inhibitory activity on the hatching of eggs of Tetranychus urticae (in words) [1]: strong inhibitory activities | Hatching rate (%) ([1]; Replicate 1): 0.00% | Hatching rate (%) ([1]; Replicate 2): 0.00% | Number of hatched larvae 5 days after insecticide delivery ([1]; Replicate 1): 0 | Number of hatched larvae 5 days after insecticide delivery ([1]; Replicate 2): 0 | inhibitory effect on the hatching of eggs of Panonychus citri (in words) (eggs of Panonychus citri): good inhibitory effects | Hatching rate (%), Replicate 1 (eggs of Panonychus citri): 0.00% | Hatching rate (%), Replicate 2 (eggs of Panonychus citri): 0.00% | Hatching rate (%), Replicate 3 (eggs of Panonychus citri): 0.00% | Number of hatched larvae 5 days after insecticide delivery, Replicate 1 (eggs of Panonychus citri): 0 | Number of hatched larvae 5 days after insecticide delivery, Replicate 2 (eggs of Panonychus citri): 0 | Number of hatched larvae 5 days after insecticide delivery, Replicate 3 (eggs of Panonychus citri): 0 | inhibitory activity on the hatching of eggs of Spodoptera litura (in words) [2]: good inhibitory activities | Hatching rate (%), Replicate 1 [2]: 15.79% | Hatching rate (%), Replicate 2 [2]: 15.38% | Hatching rate (%), Replicate 3 [2]: 15.38% | Number of unhatched larvae 4 days after insecticide delivery, Replicate 1 [2]: 48 | Number of unhatched larvae 4 days after insecticide delivery, Replicate 2 [2]: 55 | Number of unhatched larvae 4 days after insecticide delivery, Replicate 3 [2]: 44
